Key:
[1] = target: skeletal muscle myosin S2 peptide (MYH2) (Homo sapiens, UniProt Q9UKX2); assay: FRET of skeletal muscle myosin S2 peptide dimer with anti-S2 peptides; assay type: binding; set-up: A 19 residue peptide of the S2 region of MYH2 was matched to the previously synthesized S2 peptide; host or cells: chemical synthesis; conditions: Skeletal peptide with Stabilizer
Description: MYH2 gene codes for human skeletal muscle myosin expressed in fast type IIA muscle fibers. This myosin isoform can be found within extraocular muscle. A 19 residue peptide of the S2 region of MYH2 was matched to the previously synthesized S2 peptide of cardiac isoform and chemically synthesized […]. Generated amino acid sequence used is as follow: residues 925 to 945
Resonance energy probes (donor and acceptor) were covalently attached to synthetic myosin S2 peptides of cardiac muscle, E930del cardiac muscle, E924K cardiac muscle, smooth muscle, and skeletal muscle (Aboonasrshiraz, N., 2020).
Acceptor probe was conjugated to muscle myosin S2 peptides at N-terminus. Muscle myosin S2 peptides were dissolved in 20 mM HEPES buffer at pH 8.0. And FITC was dissolved in few drops of N, N dimethyl formamide. […]
In FRET assay, Fluorescein Isothiocyanate (FITC) functioned as fluorescent acceptor probe and Terbium Diethylene Triamine Pentaacetic Acid-Cytosine (Lanthanide-DTPA-Cytosine) functioned as donor probe. […] Lifetime of donor probe was measured in milliseconds.
Like cardiac muscle myosin S2^pep, dilution by decreasing the concentration of dimer skeletal muscle myosin S2^pep was performed and further was treated with different concentrations of anti-S2 peptides (FIG. 28A, 28B). […] Calculated separation distance in presence of the stabilizer peptide was 3.58 nm.

[2] = test system: rabbit skeletal myosin (myosin S2 coiled coil); assay: GFS with rabbit skeletal myosin tethered by S1 heads to G-actin; assay type: biochemical
Experimental: To test stability and flexibility of myosin S2 peptide two different types of conjugation was performed to tether the molecule between the immobile edge and mobile edge. First conjugation was crosslinking the muscle myosin S2 peptides to immobile edge and mobile bead. A different conjugation was benefiting from the binding property of actin to myosin S1. Rabbit skeletal myosin molecule at myosin S1 position was bound with G-actin treated immobile edge and mobile bead.
This conjugation was done by first, treating glass coverslips and silica beads with 0.04% 3-aminopropyltriethoxylsilane in acetone to add the aminosilane groups to both glass coverslips and silica beads. To cross link G-actin to the aminosilanated glass coverslips and silica beads 740 mM 1-ethyl-3-(3 dimethyaminopropyl) carbodiimide was used with help of 60 μM N-hydroxysuccinamide. To block any unreacted group, glycine quenching solution was added. Lastly, both glass coverslips and silica beads went over several washes with low salt buffer and were stored in the same low salt buffer for GFS experiments.
The point of attachment to tether myosin molecule between immobile edge of the coverslip and mobile beads, was at the acto-myosin S1 binding region. The edge of the coverslips and silica beads are coated with G-actin molecules. […]

SMILES: C[C@H](NC(=O)[C@H](CCCCN)NC(=O)[C@H](Cc1ccccc1)NC(=O)[C@H](CCCCN)NC(=O)[C@H](CCCCN)NC(=O)[C@H](CCCCN)NC(=O)[C@H](CCCCN)NC(=O)[C@H](CCCCN)NC(=O)[C@H](CCCCN)NC(=O)[C@H](CCCCN)NC(=O)[C@@H](N)CCCCN)C(=O)N[C@@H](CCCCN)C(=O)N[C@@H](CCCCN)C(=O)N[C@@H](CCCCN)C(=O)N[C@@H](CCCCN)C(=O)N[C@@H](CCCCN)C(=O)N[C@@H](CCCCN)C(=O)O [Stabilizer]
- TD (donor lifetime without acceptor) [1]: 1.73E−03

SMILES: CSCC[C@H](NC(=O)[C@H](CCC(=O)O)NC(=O)[C@H](CCCNC(=N)N)NC(=O)[C@H](CCC(=O)O)NC(=O)[C@H](CC(=O)O)NC(=O)[C@H](CCC(=O)O)NC(=O)[C@H](CC(C)C)NC(=O)[C@H](CCCNC(=N)N)NC(=O)[C@H](CCC(=O)O)NC(=O)[C@H](CC(N)=O)NC(=O)[C@H](CCSC)NC(=O)[C@@H](N)CCC(=O)O)C(=O)N[C@@H](CCCCN)C(=O)N[C@@H](C)C(=O)N[C@@H](CCC(=O)O)C(=O)N[C@@H](CC(C)C)C(=O)N[C@H](C(=O)N[C@@H](C)C(=O)N[C@@H](CCCCN)C(=O)O)[C@@H](C)O [Destabilizer]
- force required to uncoil myosin relative to absence of peptide (less) ([2]; destabilizer peptide vs control): 1.6 times
- Force required to uncoil the myosin molecule ([2]; length 100 nm, in presence of destabilizer peptide): 3.09±0.05 pN
